Read-outs that look alike come from different tables or passages of the source.
How the values were obtained:
[1] = molecular target: prokaryotic 16S rRNA (the A-site); details: cited from earlier work
[2] = molecular target: 27-mer model of the bacterial A site region, full ribonucleotide R; assay: Binding to 27-mer A site model as full ribonucleotide (R); details: RNA R
Method: (§1) The 27-mer model of a segment of the bacterial A site region has been prepared as a full ribonucleotide (see FIG. 27, compound R), and as a chimeric 2′-O-methylribonucleotide containing three deoxyadenosine residues (see FIG. 27, compound C). RNAs R and C have been prepared using conventional phosphoramidite chemistry on solid support. Phosphoramidites were purchased from Glen Research and used as 0.1 M solutions in acetonitrile. RNA R was prepared following the procedure given in Wincott, et al., Nucl. Acids Res., 1995, 23, 2677-2684, the disclosure of which is incorporated herein by reference in its entirety. RNA C was prepared using standard coupling cycles, deprotected, and precipitated from 10 M NH4OAc. The aminoglycoside paromomycin binds to both R and C with kD values of 0.25 and 0.45 micromolar, respectively. The reported kD values are around 0.2 μM. […]
(§2) The mass spectrum obtained from a 5 μM solution of C mixed with 125 nM paromomycin (FIG. 28A) contains [M-5H]5− ions from free C at m/z 1783.6 and the [M-5H]5− ions of the paromomycin-C complex at m/z 1907.3. […] Signals from the [M-4H]4− ions of C and the complex are detected at m/z 2229.8 and 2384.4, respectively. […] Fragment ions are detected at m/z 1005.6 (w6)2−, 1065.8 (a7-B)2−, 1162.6 (w7)2−, 1756.5 (M-Ad)5−, 2108.9 (w21-Ad)3−, 2153.4 (a20-B)3−, 2217.8 (w21)3−, and 2258.3 (a21-B)3−. […]

[3] = molecular target: 27-mer model of the bacterial A site region, chimeric C; assay: Binding to 27-mer A site model as chimeric 2'-O-methylribonucleotide with three deoxyadenosines (C); details: RNA C
Method: as §1, §2

## NC[C@@H]1O[C@H](O[C@H]2[C@@H](O)[C@H](O[C@@H]3[C@@H](O)[C@H](N)C[C@H](N)[C@H]3O[C@H]3O[C@H](CO)[C@@H](O)[C@H](O)[C@H]3N)O[C@@H]2CO)[C@H](N)[C@@H](O)[C@@H]1O [paromomycin]
[1]; 16S A-site, previously reported, listed as Paromomycin, read-out: literature / solution KD
  Kd: ~200 nM
[1]; 16S A-site, previously reported, read-out: literature / solution KD
  Kd: 200 nM
[1]; Recht 1996, Wong 1998, Wang 1997, read-out: reported kD values
  Kd: ~200 nM
[1]; test 27-mer RNA, known from other experiments or literature, read-out: binding affinity
  Kd: ~1000 nM
[2]
  Kd: 250 nM
[3]
  Kd: 450 nM

Source: patent US6656690B2, “Mass spectrometric methods for biomolecular screening” (priority 1998, dated 2003)
